Measured values from patent US5686492A, “Disubstituted p-fluorobenzenesulfonamides” (Schering Aktiengesellschaft, priority 1994, dated 1997).

Columns and labels:
[1] = compatibility in comparison to structurally closest previously-known compound; assay type: in vivo; conditions: than structurally closest previously-known compound (compound of Example 2 with Y meaning hydrogen)
Text: (§1) An equally high (undesirable) histamine release is observed with the compound of Example 2 only with the 30-fold dosage of the above-mentioned previously-known comparison substance.

[2] = system: histamine release; experiment: histamine release in comparison to structurally closest previously-known compound; assay type: in vivo; conditions: multiple of the dosage of the previously-known comparison substance (compound of Example 2 with Y meaning hydrogen)
Text: as §1

[3] = 19F NMR line width / signal intensity of the measuring fluorine atom; assay type: physicochemical; conditions: in comparison to prior art compound (compound of Example 2 with Y meaning hydrogen); for line width smaller by: signal of the measuring fluorine atom
Text: In comparison to the structurally closest compounds of the prior art, the compounds according to the invention show clearly thinner signals for the measuring fluorine atom, so that an identically intensive signal is obtained with a smaller dosage.

compatibility higher by [1] [%] | dosage giving equally high (undesirable) histamine release [2] | line width smaller by [3] [%] | signal increase [3] [%] | SMILES
50 | 30 -fold | 12 |  | O=C(O)CCS(=O)(=O)Nc1ccc(F)c(CC(=O)NC(CO)C(O)CO)c1C(F)(F)F (centres unmarked) [Example 2, 3-{N-[4-Fluoro-2-trifluoromethylphenyl-3-acetic acid-N-(1-hydroxy-2,3-dihydroxypropyl)-amide]-sulfamoyl}-propionic acid]
 |  | 25 | ~50 | O=C(Cc1cc(NS(=O)(=O)CC(F)(F)F)cc(CC(=O)NC(CO)C(O)CO)c1F)NC(CO)C(O)CO (centres unmarked) [Example 6]
